Assay results reported in PMC12655172, “Borylated 5-Membered Ring Iminosugars: Synthesis and Biological Evaluation for Glycosidase Inhibition and Anticancer Properties for Application in Boron Neutron Capture Therapy (BNCT)—Part 2” (Pharmaceuticals, 2025).

How the values were obtained:
[1] = tested on: MCF10A (non-tumour derived normal breast cell line); assay: Cancer screening, MTT growth inhibition; assay type: cell-based; settings: 72 h
[2] = tested on: A2780 (ovarian carcinoma); assay: Cancer screening, MTT growth inhibition; assay type: cell-based
Experimental: (§1) For Table 4, all test agents were prepared as stock solutions ([…]) in dimethyl sulfoxide (DMSO) and stored at −20 °C. Cell lines used in the study included HT29 (colorectal carcinoma), A2780 (ovarian carcinoma), H460 (lung carcinoma), A431 (skin carcinoma), MiaPaCa-2 (pancreatic carcinoma), and SMA560 (spontaneous murine astrocytoma), together with MCF10A (non-tumour derived normal breast cell line). Cell line sources: the HT29, H460, and MiaPaCa-2, together with MCF10A were purchased from ATCC. The A2780 and A431 were purchased from the European Collection of Cell Culture (ECACC). All cell lines were incubated in a humidified atmosphere 5% CO2 at 37 °C. The cancer cell lines were maintained in Dulbecco’s modified Eagle’s medium (DMEM; Sigma, Truganina, Australia) supplemented with foetal bovine serum (10%), sodium pyruvate ([…]), penicillin (100 IUmL^−1), streptomycin (100 µg mL^−1), and L-glutamine ([…]).
(§2) Growth inhibition was determined by plating cells in duplicate in medium (100 µL) at a density of 2500–4000 cells per well in 96-well plates. On day 0 (24 h after plating), when the cells are in logarithmic growth, medium (100 µL) with or without the test agent was added to each well. […] Each data point is the mean ± the standard error of the mean (SEM) calculated from three replicates which were performed on separate occasions and separate cell line passages.

A431 (skin carcinoma) = assay: Cancer screening, MTT growth inhibition; assay type: cell-based
Experimental: as §1, §2

H460 (lung carcinoma) = assay: Cancer screening, MTT growth inhibition; assay type: cell-based
Experimental: as §1, §2

[3] = tested on: HT29 (colorectal carcinoma); assay: Cancer screening, MTT growth inhibition; assay type: cell-based
Experimental: as §1, §2

[4] = tested on: MIA-Pa-Ca2 (pancreatic carcinoma); assay: Cancer screening, MTT growth inhibition; assay type: cell-based
Experimental: as §1, §2

[5] = Sample appearance on sample preparation in water; assay type: physicochemical; settings: 1 mL of water was added to 1 mg solid
α-D-glucosidase (rice) = α-D-glucosidase (rice) (Oryza sativa subsp. japonica, UniProt Q653V7); assay: Glycosidase inhibition (Table 2 panel); assay type: biochemical
From the text: (§3) The enzymes α-D-glucosidase (yeast), β-D-glucosidases (almond, bovine liver), α-D-galactosidase (coffee beans), β-D-galactosidase (bovine liver), α-D-mannosidase (Jack bean), β-D-mannosidase (snail), α-L-rhamnosidase (P. decumbens), α-L-fucosidase (bovine kidney), trehalase (porcine kidney), β-D-glucuronidases (E. coli, bovine liver), amyloglucosidase (A. niger), para-nitrophenyl glycosides, and various disaccharides were purchased from Sigma-Aldrich Co (St. Louis, MO, USA).
(§4) Brush border membranes were prepared from the rat small intestine according to the method of Kessler et al., and were assayed at pH 6.8 for rat intestinal maltase using maltose. For rat intestinal maltase, porcine kidney trehalase, and A. niger amyloglucosidase activities, the reaction mixture contained maltose ([…]) and the appropriate amount of enzyme, and the incubations were performed for 10–30 min at 37 °C. The reaction was stopped by heating at 100 °C for 3 min. After centrifugation (600 g; 10 min), the resulting reaction mixture was added to the Glucose CII-test Wako (Wako Pure Chemical Ind., Osaka, Japan). The absorbance at 505 nm was measured to determine the amount of the released D-glucose. Other glycosidase activities were determined using an appropriate para-nitrophenyl glycoside as substrate at the optimum pH of each enzyme. The reaction mixture contained the substrate ([…]) and the appropriate amount of enzyme. The reaction was stopped by the addition of Na2CO3 ([…]). The released para-nitrophenol was measured spectrometrically at 400 nm. All reactions were run in […].

[6] = tested on: α-D-glucosidase (rat intestinal maltase); assay: Glycosidase inhibition (Table 2 panel); assay type: biochemical
From the text: as §3, §4

[7] = target: T1, β-D-glucosidase (bovine liver) (Bos taurus, UniProt F1MNT6); assay: Glycosidase inhibition (Table 2 panel); assay type: biochemical
T1 sequence (F1MNT6 1-469): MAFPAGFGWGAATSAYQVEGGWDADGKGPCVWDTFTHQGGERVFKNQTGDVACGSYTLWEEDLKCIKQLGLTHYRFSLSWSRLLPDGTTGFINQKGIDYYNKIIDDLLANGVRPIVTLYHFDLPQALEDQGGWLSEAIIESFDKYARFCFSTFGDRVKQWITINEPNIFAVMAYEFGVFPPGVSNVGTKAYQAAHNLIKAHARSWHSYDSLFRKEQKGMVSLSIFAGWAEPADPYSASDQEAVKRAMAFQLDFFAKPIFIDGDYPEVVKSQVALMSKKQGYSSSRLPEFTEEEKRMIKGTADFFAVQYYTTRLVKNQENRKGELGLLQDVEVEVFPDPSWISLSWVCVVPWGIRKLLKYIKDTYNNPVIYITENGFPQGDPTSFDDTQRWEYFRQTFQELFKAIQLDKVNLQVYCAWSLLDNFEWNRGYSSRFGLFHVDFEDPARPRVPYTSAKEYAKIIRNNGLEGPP
From the text: as §3, §4

[8] = tested on: T2, trehalase (porcine kidney); assay: Glycosidase inhibition (Table 2 panel); assay type: biochemical
T2 construct: purchased Sigma-Aldrich; host or cells: porcine kidney
From the text: as §3, §4

[9] = tested on: T3, α-D-galactosidase (coffee beans); assay: Glycosidase inhibition (Table 2 panel); assay type: biochemical
T3 construct: purchased Sigma-Aldrich; host or cells: coffee beans
From the text: as §3, §4

β-D-mannosidase (snail) = assay: Glycosidase inhibition (Table 2 panel); assay type: biochemical
From the text: as §3, §4

β-D-glucosidase (almond) = assay: Glycosidase inhibition (Table 2 panel); assay type: biochemical
From the text: as §3, §4

[10] = tested on: α-L-rhamnosidase (P. decumbens); assay: Glycosidase inhibition (Table 2 panel); assay type: biochemical
From the text: as §3, §4

[11] = listed as of the 1000 μM series

Sequence of α-D-glucosidase (rice) (Q653V7 34-885): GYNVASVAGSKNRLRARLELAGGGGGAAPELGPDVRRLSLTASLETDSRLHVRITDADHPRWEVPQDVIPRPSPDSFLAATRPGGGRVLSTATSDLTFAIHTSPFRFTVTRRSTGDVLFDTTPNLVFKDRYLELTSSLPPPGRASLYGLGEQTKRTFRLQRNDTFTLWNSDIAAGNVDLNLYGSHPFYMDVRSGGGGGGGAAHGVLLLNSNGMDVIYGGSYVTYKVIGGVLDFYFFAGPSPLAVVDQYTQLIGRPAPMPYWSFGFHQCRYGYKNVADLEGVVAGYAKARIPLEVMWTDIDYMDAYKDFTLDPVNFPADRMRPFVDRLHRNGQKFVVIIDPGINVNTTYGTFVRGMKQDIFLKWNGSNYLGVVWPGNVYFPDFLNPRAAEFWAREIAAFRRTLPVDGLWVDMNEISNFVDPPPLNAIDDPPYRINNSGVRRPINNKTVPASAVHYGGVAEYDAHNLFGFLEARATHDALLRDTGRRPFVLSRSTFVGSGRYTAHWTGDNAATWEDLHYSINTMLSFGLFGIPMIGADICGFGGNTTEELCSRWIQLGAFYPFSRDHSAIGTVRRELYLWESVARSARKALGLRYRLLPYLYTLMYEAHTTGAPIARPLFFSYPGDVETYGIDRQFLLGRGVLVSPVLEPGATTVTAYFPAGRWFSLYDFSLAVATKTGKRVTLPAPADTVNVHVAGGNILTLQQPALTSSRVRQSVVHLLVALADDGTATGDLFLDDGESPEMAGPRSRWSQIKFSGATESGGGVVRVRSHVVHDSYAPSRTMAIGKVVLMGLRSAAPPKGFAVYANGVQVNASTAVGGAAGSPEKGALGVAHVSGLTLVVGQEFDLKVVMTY

With `OC[C@H](O)[C@@H]1[C@H](O)[C@H](O)CN1Cc1cccc(B(O)O)c1` [meta 4, N-(3-Methylphenylboronic acid)-1,4-dideoxy-1,4-imino-L-gulitol] the inhibition at 25 µM ([1]; Homo sapiens, MCF-10A, 25 µM of drug, read-out: DOSE SCREEN percentage (%) cell growth inhibition MCF10A Breast (normal)) was 14 ± 13%, the GI50 ([1]; Homo sapiens, MCF-10A, read-out: DOSE RESPONSE GI50 MCF10A Breast (normal)) was > 50 µM and the inhibition at 25 µM ([2]; Homo sapiens, A2780, 25 µM of drug, 72 h, read-out: DOSE SCREEN percentage (%) cell growth inhibition A2780 Ovarian) was 18 ± 5%. The GI50 ([2]; Homo sapiens, A2780, 72 h, read-out: DOSE RESPONSE GI50 A2780 Ovarian) was > 50 µM, the inhibition at 25 µM (A431 (skin carcinoma); Homo sapiens, A-431, 25 µM of drug, 72 h, read-out: DOSE SCREEN percentage (%) cell growth inhibition A431 Skin) was 6 ± 1% and the GI50 (A431 (skin carcinoma); Homo sapiens, A-431, 72 h, read-out: DOSE RESPONSE GI50 A431 Skin) was > 50 µM. For the same molecule, the inhibition at 25 µM (H460 (lung carcinoma); Homo sapiens, NCI-H460, 25 µM of drug, 72 h, read-out: DOSE SCREEN percentage (%) cell growth inhibition H460 Lung) was 7 ± 1%, the GI50 (H460 (lung carcinoma); Homo sapiens, NCI-H460, 72 h, read-out: DOSE RESPONSE GI50 H460 Lung) was > 50 µM and the inhibition at 25 µM ([3]; Homo sapiens, HT-29, 25 µM of drug, 72 h, read-out: DOSE SCREEN percentage (%) cell growth inhibition HT29 Colon) was < 0%. The GI50 ([3]; Homo sapiens, HT-29, 72 h, read-out: DOSE RESPONSE GI50 HT29 Colon) was > 50 µM, the inhibition at 25 µM ([4]; Homo sapiens, MIA PaCa-2, 25 µM of drug, 72 h, read-out: DOSE SCREEN percentage (%) cell growth inhibition MIA-Pa-Ca2 Pancreatic) was 16 ± 5% and the GI50 ([4]; Homo sapiens, MIA PaCa-2, 72 h, read-out: DOSE RESPONSE GI50 MIA-Pa-Ca2 Pancreatic) was > 50 µM. For the same molecule, the “Sample Appearance” value [5] was “In solution”, the inhibition at 100 µM (α-D-glucosidase (rice); at 100 μM) was 8% and the IC50 (α-D-glucosidase (rice); [11]) was 106 µM. The “inhibition % α-D-Glucosidase Rat Intestinal Maltase” value ([6]; at 100 μM) was “^cNI ^d(22.8%)”, the IC50 [6, 11] was 588 µM and the inhibition at 100 µM ([7]; at 100 μM) was 0%. The inhibition at 1000 µM ([7]; at 1000 μM) was 37.9%, the “inhibition % Trehalase Porcine Kidney” value ([8]; at 100 μM) was “^cNI ^d(0.8%)” and the “inhibition % Trehalase Porcine Kidney” value ([8]; at 1000 μM) was “^aNI ^b(3.4%)”. For the same molecule, the “inhibition % α-D-Galactosidase Coffee Beans” value ([9]; at 100 μM) was “^cNI ^d(1.1%)”, the “inhibition % α-D-Galactosidase Coffee Beans” value ([9]; at 1000 μM) was “^aNI ^b(3.7%)” and the “inhibition % β-D-Mannosidase Snail” value (β-D-mannosidase (snail); at 100 μM) was “^cNI ^d(0%)”. The “inhibition % β-D-Mannosidase Snail” value (β-D-mannosidase (snail); at 1000 μM) was “^aNI ^b(0%)”, the “inhibition % β-D-Glucosidase Almond” value (β-D-glucosidase (almond); at 100 μM) was “^cNI ^d(0.6%)” and the “inhibition % β-D-Glucosidase Almond” value (β-D-glucosidase (almond); at 1000 μM) was “^aNI ^b(43%)”. The “inhibition % α-L-Rhamnosidase P. decumbens” value ([10]; at 100 μM) was “^cNI ^d(8.3%)”.

In the case of “Borocaptate sodium [BSH, reference compound]”, the “DOSE SCREEN percentage (%) cell growth inhibition MCF10A Breast (normal)” value ([1]; 25 µM of drug) is reported as “* 8 ± 3%”, the “DOSE SCREEN percentage (%) cell growth inhibition A2780 Ovarian” value ([2]; 25 µM of drug, 72 h) is reported as “* 2 ± 5%” and the “DOSE SCREEN percentage (%) cell growth inhibition A431 Skin” value (A431 (skin carcinoma); 25 µM of drug, 72 h) is reported as “* <0%”. For the same molecule, the “DOSE SCREEN percentage (%) cell growth inhibition H460 Lung” value (H460 (lung carcinoma); 25 µM of drug, 72 h) was “* 8 ± 2%”, the “DOSE SCREEN percentage (%) cell growth inhibition HT29 Colon” value ([3]; 25 µM of drug, 72 h) was “* 3 ± 2%” and the “DOSE SCREEN percentage (%) cell growth inhibition MIA-Pa-Ca2 Pancreatic” value ([4]; 25 µM of drug, 72 h) was “* 2 ± 6%”. For the same molecule, the “Sample Appearance” value [5] was “In solution”, the “inhibition % α-D-Glucosidase Rice” value (α-D-glucosidase (rice); at 1000 μM) was “^aNI ^b(0%)” and the “inhibition % α-D-Glucosidase Rat Intestinal Maltase” value ([6]; at 1000 μM) was “^aNI ^b(0%)”. For the same molecule, the “inhibition % β-D-Glucosidase Bovine Liver” value ([7]; at 1000 μM) was “^aNI ^b(15%)”, the “inhibition % Trehalase Porcine Kidney” value ([8]; at 1000 μM) was “^aNI ^b(4.2%)” and the “inhibition % α-D-Galactosidase Coffee Beans” value ([9]; at 1000 μM) was “^aNI ^b(12.3%)”. The “inhibition % β-D-Mannosidase Snail” value (β-D-mannosidase (snail); at 1000 μM) was “^aNI ^b(19.2%)”, the “inhibition % β-D-Glucosidase Almond” value (β-D-glucosidase (almond); at 1000 μM) was “^aNI ^b(0%)” and the “inhibition % α-L-Rhamnosidase P. decumbens” value ([10]; at 1000 μM) was “^aNI ^b(0.2%)”.
